Reference: ChEMBL document CHEMBL1137009, “Inhibition of sphingosine-1-phosphate lyase for the treatment of autoimmune disorders” (J Med Chem, 2009)

How the values were obtained:
[1] = Clearance in 129/SvEvBrd x C57BL/6 hybrid mouse at 1 mg/kg, iv; format: ADME, organism-based; set-up: dose 1 mg/kg, route intravenous; conditions: in vivo
[2] = (§1) Oral bioavailability in 129/SvEvBrd x C57BL/6 hybrid mouse at 1 mg/kg, iv and 10 mg/kg, po; format: ADME, organism-based; conditions: 129/SvEvBrd x C57BL/6 hybrid, in vivo
[3] = test system: Mus musculus; assay: Induction of lymphopenia in 129/SvEvBrd x C57BL/6 hybrid mouse assessed as change in circulating lymphocyte level at 100 mg/kg, po administered as single dose after 18 hrs by complete blood count analysis relative to control; format: functional
[4] = Half life in 129/SvEvBrd x C57BL/6 hybrid mouse; format: ADME, organism-based; conditions: in vivo
[5] = (§2) AUC (0 to infinity) in 129/SvEvBrd x C57BL/6 hybrid mouse at 10 mg/kg, po; format: ADME, organism-based, Plasma; set-up: time infinity, dose 10 mg/kg, route oral; conditions: 129/SvEvBrd x C57BL/6 hybrid, plasma
[6] = Permeability across human Caco-2 cell membrane at 20 uM; format: ADME, cell-based; conditions: read-out: permeability
[7] = test system: Mus musculus; assay: Induction of lymphopenia in 129/SvEvBrd x C57BL/6 hybrid mouse assessed as change in circulating lymphocyte level at 30 mg/kg, po administered as single dose after 18 hrs by complete blood count analysis relative to control; format: functional
[8] = test system: Mus musculus; assay: as §1; format: ADME, organism-based; conditions: in vivo
[9] = test system: Mus musculus; assay: as §2; format: ADME, organism-based, Plasma; set-up: time infinity, dose 10 mg/kg, route oral; conditions: in vivo

SMILES	clearance [1] [mL/min/kg]	bioavailability [2] [%]	Activity [3] [%]	half-life [4] [h]	AUC(0-inf) [5] [µM·h]	Papp at 20 µM [6] [×10⁻⁶ cm/s]	Activity [7] [%]	F [8] [%]	AUC [9] [µM·h]
CCc1[nH]c(C(C)=O)nc1[C@@H](O)[C@H](O)[C@H](O)CO	17.3	17.1	8	2.8	6.4	7.93	–	–	–
OC[C@@H](O)[C@@H](O)[C@H](O)c1c[nH]c(-c2ncn(Cc3ccccc3)n2)n1	16.4	6	-41	2.4	1.7	5.1	–	–	–
OC[C@@H](O)[C@@H](O)[C@H](O)c1c[nH]c(-c2ncccn2)n1	15.2	7	-26	2.4	3	10.9	–	–	–
CC(=O)c1nc([C@@H](O)[C@@H](O)[C@H](O)CO)c[nH]1	18.8	25	-31	5.4	15.7	9.9	–	–	–
CC(=O)c1cccc([C@@H](O)[C@H](O)[C@H](O)CO)n1	14	88	45	2.1	43.4	13.4	–	–	–
O=C(c1ccccc1)c1nc([C@@H](O)[C@H](O)[C@H](O)CO)c[nH]1	13.5	14	–	4	6	–	-17	–	–
Cc1nc(-c2nc([C@@H](O)[C@H](O)[C@H](O)CO)c[nH]2)cs1	19.4	23	0	2.1	6.9	19.9	–	–	–
CC(=O)c1nc([C@H](O)[C@@H](O)[C@@H](O)CO)c[nH]1	6.7	17	0	6	18	13.1	–	–	–
CC(O)c1nc([C@@H](O)[C@H](O)[C@H](O)CO)c[nH]1 (some centres undefined)	–	–	-15	4.4	–	4.1	–	22	44.5
Cc1scnc1-c1nc([C@@H](O)[C@H](O)[C@H](O)CO)c[nH]1	–	–	-7	–	–	4.9	–	–	–
OC[C@@H](O)[C@@H](O)[C@H](O)c1c[nH]c(-c2cocn2)n1	16.6	–	1	1.2	3.4	0.9	–	–	–
OC[C@@H](O)[C@@H](O)[C@H](O)c1c[nH]c(-c2cscn2)n1	12.7	12	-33	4.2	5.8	–	–	–	–
CC(=O)c1ncc([C@@H](O)[C@H](O)[C@H](O)CO)s1	–	–	25	0.9	–	13.9	–	65	2.7
OC[C@@H](O)[C@@H](O)[C@H](O)c1c[nH]c(-c2cnccn2)n1	13.4	10	-6	1.9	4.7	19.8	–	–	–
CC(=O)c1nc([C@@H](O)[C@H](O)[C@H](O)CO)cn1C	5.7	33.6	10	2.4	41.1	5.57	–	–	–
OC[C@@H](O)[C@@H](O)[C@H](O)c1c[nH]c(-c2ncc[nH]2)n1	31.5	28	-53	3.2	5.9	25.9	–	–	–
CC(=O)c1nc([C@@H](O)[C@H](O)[C@H](O)C(=O)N(C)C)c[nH]1	11.7	1	-15	3.5	0.2	10.3	–	–	–
Cn1cnc(-c2nc([C@@H](O)[C@H](O)[C@H](O)CO)c[nH]2)c1	9.1	3	-5	1.6	2.6	26.2	–	–	–
OC[C@@H](O)[C@@H](O)[C@H](O)c1c[nH]c(-c2nc[nH]n2)n1	–	–	7	–	–	1	–	–	–
CC(=O)N/N=C(\C)c1nc([C@@H](O)[C@H](O)[C@H](O)CO)c[nH]1	8.9	5	–	2.6	3.6	9	-41	–	–
OC[C@@H](O)[C@@H](O)[C@H](O)c1c[nH]c(-c2ncon2)n1	11.3	5	-16	0.7	3.2	14.1	–	–	–
OC[C@@H](O)[C@@H](O)[C@H](O)c1c[nH]c(C(F)(F)C(F)(F)F)n1	–	–	–	1.7	–	–	-11	31	10
CC(=O)c1nc([C@@H](O)[C@H](O)[C@H](O)CO)c(C)[nH]1	7	11	-5	6.2	10.8	9.37	–	–	–
CC(=O)c1nc([C@@H](O)[C@H](O)[C@H](O)CO)c(-c2ccccc2)[nH]1	23.9	49.6	40	1.9	11.5	3.11	–	–	–
CO[C@H](c1c[nH]c(C(C)=O)n1)[C@H](O)[C@H](O)CO	6.8	42	16	3.3	42.7	–	–	–	–
